Source: US20250268884A1, “Deuterated Domperidone for Treating Gastroparesis” (CinDome Pharma, Inc., priority 2022, published 2025)

Key:
[1] = test system: adults with idiopathic or diabetic gastroparesis; assay: ANMS GCSI-DD total and subscale scores, ANMS GCSI-DD manual scoring method, Phase 2a; type: in vivo, human; conditions: for ANMS GCSI-DD early satiety subscale score, Baseline / ANMS GCSI-DD early satiety subscale score, Change from baseline to Day 14/EOT / ANMS GCSI-DD early satiety subscale score, Day 14/EOT / ANMS GCSI-DD early satiety subscale score, Percent change from baseline to Day 14/EOT / ANMS GCSI-DD nausea subscale score, Baseline / ANMS GCSI-DD nausea subscale score, Change from baseline to Day 14/EOT / ANMS GCSI-DD nausea subscale score, Day 14/EOT / ANMS GCSI-DD nausea subscale score, Percent change from baseline to Day 14/EOT / ANMS GCSI-DD postprandial fullness subscale score, Baseline / ANMS GCSI-DD postprandial fullness subscale score, Change from baseline to Day 14/EOT / ANMS GCSI-DD postprandial fullness subscale score, Day 14/EOT / ANMS GCSI-DD postprandial fullness subscale score, Percent change from baseline to Day 14/EOT / ANMS GCSI-DD total score, Baseline / ANMS GCSI-DD total score, Day 14/EOT / ANMS GCSI-DD total score, change from baseline to Day 14/EOT / ANMS GCSI-DD total score, percent change from baseline to Day 14/EOT / ANMS GCSI-DD upper abdominal pain subscale score, Baseline / ANMS GCSI-DD upper abdominal pain subscale score, Change from baseline to Day 14/EOT / ANMS GCSI-DD upper abdominal pain subscale score, Day 14/EOT / ANMS GCSI-DD upper abdominal pain subscale score, Percent change from baseline to Day 14/EOT / ANMS GCSI-DD vomiting subscale score, Baseline / ANMS GCSI-DD vomiting subscale score, Change from baseline to Day 14/EOT / ANMS GCSI-DD vomiting subscale score, Day 14/EOT / ANMS GCSI-DD vomiting subscale score, Percent change from baseline to Day 14/EOT: mean, ITT Population
From the text: As known in the art, the ANMS GCSI-DD covers 5 core relevant symptoms of gastroparesis: nausea, early satiety, postprandial fullness, upper abdominal pain and vomiting. Bloating is included as an exploratory symptom. Symptoms are rated on a severity numeric response scale from 0 (none) to 4 (very severe). Vomiting is captured on a frequency response scale and scored as follows: 0 for no episodes, 1 for one episode, 2 for 2 episodes, 3 for 3 episodes, and 4 for 4 or more episodes. In some embodiments, subjects recall symptoms over the previous 24 hours and completes the ANMS GCSI-DD patient-reported symptom questionnaire. In certain embodiments, the total ANMS GCSI-DD score is calculated as the mean of the 3 subscale scores for severity of nausea/vomiting, postprandial fullness/early satiety, and bloating. See, e.g., “The Use Manual for the ANMS GCSI-DD,” American Neurogastroenterology and Motility Society Gastroparesis Cardinal Symptom Index Daily Diary, 2018; https://www.fda.gov/media/125038/download. In other embodiments, the total ANMS GCSI-DD score is calculated using the ‘manual’ scoring method. The ANMS GCSI-DD manual scoring method is generated by summing the scores on each of the five symptom items (nausea, early satiety, postprandial fullness, upper abdominal pain, and number of vomiting episodes) and then dividing by 5, that is the number of items within the gastroparesis related symptom score. […] The ANMS GCSI-DD gastroparesis symptom daily score can range from 0 to 4. High scores on the ANMS GCSI-DD reflect greater symptom severity. See, e.g., “User Manuel for the ANMS GCSI-DD,” Federal Drug Administration at https://www.fda.gov/media/125038/download, which is hereby incorporated by reference.
The severity scores of 4 gastroparesis-related symptoms (nausea, early satiety, postprandial fullness, upper abdominal pain) range from 0-none to 4-very severe. The vomiting score assesses the number of vomiting episodes during the day, capped at a maximum of 4; thus, the scores for vomiting range from 0 (no episodes of vomiting) to 4 (4 or more episodes of vomiting). Vomiting frequency is scored as 0 episodes, 1 episode, 2 episodes, 3 episodes, or 4 or more episodes (capped as 4).
Table 11 presents the ANMS GCSI-DD total and subscale scores and change and percent change from baseline for the ITT Population using the ANMS GC SI-DD Manual scoring method. […] Subjects receiving placebo also experienced decreases in ANMS GCSI-DD total and subscale scores.

[2] = test system: cardiac conduction (QRS interval) in healthy subjects; conditions: human, in vivo
Procedure: Categorical T-wave morphology analysis and measurement of PR and QRS intervals were fully performed manually using a semi-automated process in 3 of the 10 ECG replicates at each time point. Final quality control and diagnostic interpretations were performed by the study cardiologist.
An unstructured covariance structure was used to specify the repeated measures at post-dose time points for subject within treatment period. The model also included a subject-specific random effect.

[3] = test system: adults with idiopathic or diabetic gastroparesis; conditions: in vivo
Procedure: Safety was evaluated through assessments of Aes, vital signs, physical examinations, clinical laboratory evaluations (including prolactin), and ECG findings. Additionally, a single, optional PGx blood sample may have been collected at any time during the subject's participation in the study.
Safety variables included Aes, clinical laboratory results (including prolactin), vital signs, ECGs, and physical examination findings.

With `[2H]c1c([2H])c([2H])c2c([nH]c(=O)n2CCCN2CCC(n3c(=O)[nH]c4cc(Cl)ccc43)CC2)c1[2H]` [Deudomperidone, 1-{3-[4-(5-chloro-2-oxo-2,3-dihydro-1H-1,3-benzodiazol-1-yl)piperidin-1yl]propyl}-2,3-dihydro(4,5,6,7-D4)-1H-1,3-benzodiazol-2-one] the “ANMS GCSI-DD early satiety subscale score, Baseline” value ([1]; 5 mg BID) was 2.63, the “ANMS GCSI-DD early satiety subscale score, Change from baseline to Day 14/EOT” value ([1]; 5 mg BID) was −0.85 and the “ANMS GCSI-DD early satiety subscale score, Day 14/EOT” value ([1]; 5 mg BID) was 1.78. The “ANMS GCSI-DD early satiety subscale score, Percent change from baseline to Day 14/EOT” value ([1]; 5 mg BID) was −30.65%, the “ANMS GCSI-DD nausea subscale score, Baseline” value ([1]; 5 mg BID) was 2.59 and the “ANMS GCSI-DD nausea subscale score, Change from baseline to Day 14/EOT” value ([1]; 5 mg BID) was −0.93. The “ANMS GCSI-DD nausea subscale score, Day 14/EOT” value ([1]; 5 mg BID) was 1.67, the “ANMS GCSI-DD nausea subscale score, Percent change from baseline to Day 14/EOT” value ([1]; 5 mg BID) was −41.32% and the “ANMS GCSI-DD postprandial fullness subscale score, Baseline” value ([1]; 5 mg BID) was 2.93. For the same compound, the “ANMS GCSI-DD postprandial fullness subscale score, Change from baseline to Day 14/EOT” value ([1]; 5 mg BID) was −0.70, the “ANMS GCSI-DD postprandial fullness subscale score, Day 14/EOT” value ([1]; 5 mg BID) was 2.22 and the “ANMS GCSI-DD postprandial fullness subscale score, Percent change from baseline to Day 14/EOT” value ([1]; 5 mg BID) was −26.11%. For the same compound, the “ANMS GCSI-DD total score, Baseline” value ([1]; 5 mg BID) was 2.16, the “ANMS GCSI-DD total score, Day 14/EOT” value ([1]; 5 mg BID) was 1.47 and the “ANMS GCSI-DD total score, change from baseline to Day 14/EOT” value (shortened to “ANMS GCSI-DD total score, change”) ([1]; 5 mg BID) was −0.69. For the same compound, the “ANMS GCSI-DD total score, percent change from baseline to Day 14/EOT” value (from here on “ANMS GCSI-DD total score, percent change”) ([1]; 5 mg BID) was −35.01%, the “ANMS GCSI-DD upper abdominal pain subscale score, Baseline” value ([1]; 5 mg BID) was 2.19 and the “ANMS GCSI-DD upper abdominal pain subscale score, Change from baseline to Day 14/EOT” value ([1]; 5 mg BID) was −0.85. For the same compound, the “ANMS GCSI-DD upper abdominal pain subscale score, Day 14/EOT” value ([1]; 5 mg BID) was 1.33, the “ANMS GCSI-DD upper abdominal pain subscale score, Percent change from baseline to Day 14/EOT” value ([1]; 5 mg BID) was −43.15% and the “ANMS GCSI-DD vomiting subscale score, Baseline” value ([1]; 5 mg BID) was 0.44. For the same compound, the “ANMS GCSI-DD vomiting subscale score, Change from baseline to Day 14/EOT” value ([1]; 5 mg BID) was −0.11, the “ANMS GCSI-DD vomiting subscale score, Day 14/EOT” value ([1]; 5 mg BID) was 0.33 and the “ANMS GCSI-DD vomiting subscale score, Percent change from baseline to Day 14/EOT” value ([1]; 5 mg BID) was −64.00%. For the same compound, the “ANMS GCSI-DD early satiety subscale score, Baseline” value ([1]; 10 mg BID) was 2.67, the “ANMS GCSI-DD early satiety subscale score, Change from baseline to Day 14/EOT” value ([1]; 10 mg BID) was −1.08 and the “ANMS GCSI-DD early satiety subscale score, Day 14/EOT” value ([1]; 10 mg BID) was 1.62. For the same compound, the “ANMS GCSI-DD early satiety subscale score, Percent change from baseline to Day 14/EOT” value ([1]; 10 mg BID) was −40.56%, the “ANMS GCSI-DD nausea subscale score, Baseline” value ([1]; 10 mg BID) was 2.52 and the “ANMS GCSI-DD nausea subscale score, Change from baseline to Day 14/EOT” value ([1]; 10 mg BID) was −1.20. The “ANMS GCSI-DD nausea subscale score, Day 14/EOT” value ([1]; 10 mg BID) was 1.34, the “ANMS GCSI-DD nausea subscale score, Percent change from baseline to Day 14/EOT” value ([1]; 10 mg BID) was −48.88% and the “ANMS GCSI-DD postprandial fullness subscale score, Baseline” value ([1]; 10 mg BID) was 3.01. For the same compound, the “ANMS GCSI-DD postprandial fullness subscale score, Change from baseline to Day 14/EOT” value ([1]; 10 mg BID) was −1.24, the “ANMS GCSI-DD postprandial fullness subscale score, Day 14/EOT” value ([1]; 10 mg BID) was 1.79 and the “ANMS GCSI-DD postprandial fullness subscale score, Percent change from baseline to Day 14/EOT” value ([1]; 10 mg BID) was −41.52%. For the same compound, the “ANMS GCSI-DD total score, Baseline” value ([1]; 10 mg BID) was 2.14, the “ANMS GCSI-DD total score, Day 14/EOT” value ([1]; 10 mg BID) was 1.17 and the “ANMS GCSI-DD total score, change” value ([1]; 10 mg BID) was −0.98. The “ANMS GCSI-DD total score, percent change” value ([1]; 10 mg BID) was −44.07%, the “ANMS GCSI-DD upper abdominal pain subscale score, Baseline” value ([1]; 10 mg BID) was 1.79 and the “ANMS GCSI-DD upper abdominal pain subscale score, Change from baseline to Day 14/EOT” value ([1]; 10 mg BID) was −0.80. For the same compound, the “ANMS GCSI-DD upper abdominal pain subscale score, Day 14/EOT” value ([1]; 10 mg BID) was 0.97, the “ANMS GCSI-DD upper abdominal pain subscale score, Percent change from baseline to Day 14/EOT” value ([1]; 10 mg BID) was −50.43% and the “ANMS GCSI-DD vomiting subscale score, Baseline” value ([1]; 10 mg BID) was 0.71. For the same compound, the “ANMS GCSI-DD vomiting subscale score, Change from baseline to Day 14/EOT” value ([1]; 10 mg BID) was −0.59, the “ANMS GCSI-DD vomiting subscale score, Day 14/EOT” value ([1]; 10 mg BID) was 0.14 and the “ANMS GCSI-DD vomiting subscale score, Percent change from baseline to Day 14/EOT” value ([1]; 10 mg BID) was −71.73%. For the same compound, the “ANMS GCSI-DD early satiety subscale score, Baseline” value ([1]; 20 mg QD) was 2.64, the “ANMS GCSI-DD early satiety subscale score, Change from baseline to Day 14/EOT” value ([1]; 20 mg QD) was −1.44 and the “ANMS GCSI-DD early satiety subscale score, Day 14/EOT” value ([1]; 20 mg QD) was 1.20. For the same compound, the “ANMS GCSI-DD early satiety subscale score, Percent change from baseline to Day 14/EOT” value ([1]; 20 mg QD) was −54.88%, the “ANMS GCSI-DD nausea subscale score, Baseline” value ([1]; 20 mg QD) was 2.67 and the “ANMS GCSI-DD nausea subscale score, Change from baseline to Day 14/EOT” value ([1]; 20 mg QD) was −1.93. The “ANMS GCSI-DD nausea subscale score, Day 14/EOT” value ([1]; 20 mg QD) was 0.73, the “ANMS GCSI-DD nausea subscale score, Percent change from baseline to Day 14/EOT” value ([1]; 20 mg QD) was −62.56% and the “ANMS GCSI-DD postprandial fullness subscale score, Baseline” value ([1]; 20 mg QD) was 2.84. For the same compound, the “ANMS GCSI-DD postprandial fullness subscale score, Change from baseline to Day 14/EOT” value ([1]; 20 mg QD) was −1.31, the “ANMS GCSI-DD postprandial fullness subscale score, Day 14/EOT” value ([1]; 20 mg QD) was 1.53 and the “ANMS GCSI-DD postprandial fullness subscale score, Percent change from baseline to Day 14/EOT” value ([1]; 20 mg QD) was −45.50%. The “ANMS GCSI-DD total score, Baseline” value ([1]; 20 mg QD) was 2.13, the “ANMS GCSI-DD total score, Day 14/EOT” value ([1]; 20 mg QD) was 0.88 and the “ANMS GCSI-DD total score, change” value ([1]; 20 mg QD) was −1.25. For the same compound, the “ANMS GCSI-DD total score, percent change” value ([1]; 20 mg QD) was −55.99%, the “ANMS GCSI-DD upper abdominal pain subscale score, Baseline” value ([1]; 20 mg QD) was 1.96 and the “ANMS GCSI-DD upper abdominal pain subscale score, Change from baseline to Day 14/EOT” value ([1]; 20 mg QD) was −1.09. For the same compound, the “ANMS GCSI-DD upper abdominal pain subscale score, Day 14/EOT” value ([1]; 20 mg QD) was 0.87, the “ANMS GCSI-DD upper abdominal pain subscale score, Percent change from baseline to Day 14/EOT” value ([1]; 20 mg QD) was −41.03% and the “ANMS GCSI-DD vomiting subscale score, Baseline” value ([1]; 20 mg QD) was 0.53. For the same compound, the “ANMS GCSI-DD vomiting subscale score, Change from baseline to Day 14/EOT” value ([1]; 20 mg QD) was −0.47, the “ANMS GCSI-DD vomiting subscale score, Day 14/EOT” value ([1]; 20 mg QD) was 0.07 and the “ANMS GCSI-DD vomiting subscale score, Percent change from baseline to Day 14/EOT” value ([1]; 20 mg QD) was −94.64%. The “ANMS GCSI-DD total score and all subscale scores at Day 14/EOT, manual scoring” value ([1]; all deudomperidone treatment groups, placebo also decreased) was “decreased from baseline”, the “LS mean placebo-corrected ΔQRS (ΔΔQRS)” value [2] was “±1.1 ms” and the “tolerability of multiple doses” value [3] was “generally well tolerated”.
